Assay results as given in the NIST ThermoML archive (doi:10.1021/acs.jced.5b00197).

Experiment: refractive index (other wavelength) (dimensionless); xn = mol fraction of the nth substance listed
Conditions: 94.64 kPa, Liquid, Standard Abbe refractometry

CC(=O)O [acetic acid] + Cc1ccccc1
refractive index
Conditions	Wavelength=404.7 nm	Wavelength=435.8 nm	Wavelength=486.1 nm	Wavelength=546.1 nm	Wavelength=587.6 nm	Wavelength=632.8 nm	Wavelength=644 nm	Wavelength=706.5 nm
293.15 K, x1 = 0.146	1.51185	1.50406	1.49519	1.48808	1.4846	1.48156	1.48087	1.47771
293.15 K, x1 = 0.277	1.49627	1.48902	1.48081	1.47416	1.47093	1.4681	1.46744	1.46997
293.15 K, x1 = 0.397	1.48254	1.47576	1.4681	1.46191	1.45889	1.45622	1.4556	1.4528
293.15 K, x1 = 0.506	1.46794	1.46165	1.45457	1.44883	1.44603	1.44355	1.44297	1.44033
293.15 K, x1 = 0.605	1.45403	1.44826	1.44171	1.43642	1.43382	1.43151	1.43097	1.42851
293.15 K, x1 = 0.697	1.43966	1.43437	1.4285	1.42367	1.42129	1.41917	1.41867	1.41635
293.15 K, x1 = 0.782	1.42556	1.42081	1.41549	1.41115	1.40899	1.40703	1.40657	1.40444
293.15 K, x1 = 0.859	1.41172	1.40749	1.40275	1.39886	1.39688	1.3951	1.39469	1.39271
293.15 K, x1 = 0.897	1.40081	1.397	1.39273	1.38919	1.38738	1.38572	1.38534	1.38353
293.15 K, x1 = 0.932	1.39511	1.39153	1.3875	1.38415	1.38242	1.38084	1.38047	1.37874
293.15 K, x1 = 0.967	1.38917	1.38582	1.38206	1.37892	1.37727	1.37577	1.37542	1.37375
293.15 K, x1 = 1	1.38345	1.38034	1.37681	1.37386	1.3723	1.37087	1.37055	1.36896
298.15 K, x1 = 0.146	1.50896	1.50121	1.49239	1.48532	1.48187	1.47884	1.47816	1.47502
298.15 K, x1 = 0.277	1.4934	1.48619	1.47801	1.47142	1.46821	1.46538	1.46473	1.46178
298.15 K, x1 = 0.397	1.47979	1.47305	1.46545	1.45928	1.45629	1.45365	1.45303	1.45023
298.15 K, x1 = 0.506	1.46521	1.45896	1.45191	1.44622	1.44342	1.44095	1.44038	1.43776
298.15 K, x1 = 0.605	1.45129	1.44555	1.43909	1.43383	1.43125	1.42896	1.42842	1.42598
298.15 K, x1 = 0.697	1.43707	1.43182	1.42596	1.42117	1.41881	1.41669	1.41619	1.4139
298.15 K, x1 = 0.782	1.42305	1.41834	1.41304	1.40874	1.40658	1.40463	1.40417	1.40417
298.15 K, x1 = 0.859	1.41005	1.40512	1.40043	1.39655	1.3946	1.39284	1.39242	1.39049
298.15 K, x1 = 0.897	1.39862	1.39482	1.3906	1.38706	1.38527	1.38364	1.38326	1.38144
298.15 K, x1 = 0.932	1.39296	1.38941	1.3854	1.38208	1.38035	1.37878	1.37842	1.37669
298.15 K, x1 = 0.967	1.3871	1.38379	1.38002	1.37691	1.37526	1.37375	1.37341	1.37177
298.15 K, x1 = 1	1.38126	1.37816	1.37466	1.37174	1.37018	1.36876	1.36844	1.36686
303.15 K, x1 = 0.146	1.50611	1.49841	1.48963	1.48261	1.47918	1.47618	1.47549	1.47237
303.15 K, x1 = 0.277	1.4905	1.48332	1.47522	1.46865	1.46547	1.46268	1.46203	1.45908
303.15 K, x1 = 0.397	1.47698	1.47026	1.46273	1.45661	1.45363	1.451	1.45039	1.44761
303.15 K, x1 = 0.506	1.46241	1.45621	1.44918	1.44352	1.44075	1.4383	1.43773	1.43513
303.15 K, x1 = 0.605	1.44837	1.44266	1.43626	1.43107	1.42851	1.42623	1.42569	1.42326
303.15 K, x1 = 0.697	1.4344	1.42918	1.42331	1.41861	1.41625	1.41415	1.41365	1.41136
303.15 K, x1 = 0.782	1.42104	1.41634	1.41106	1.40674	1.4046	1.40267	1.40221	1.4001
303.15 K, x1 = 0.859	1.40698	1.40281	1.39813	1.3943	1.39235	1.39059	1.39018	1.38824
303.15 K, x1 = 0.897	1.39635	1.3926	1.38838	1.3849	1.38309	1.38146	1.38109	1.37929
303.15 K, x1 = 0.932	1.3908	1.38725	1.38329	1.37997	1.37826	1.37671	1.37634	1.37461
303.15 K, x1 = 0.967	1.38499	1.38168	1.37795	1.37485	1.37321	1.37172	1.37138	1.36976
303.15 K, x1 = 1	1.37917	1.37611	1.37261	1.36968	1.36815	1.36675	1.36643	1.36485
